Data taken from patent US6846821B2, “Tetrahydrothiopy ranphthalazinone derivatives as PDE4 inhibitors” (Altana Pharma, AG, priority 1999, dated 2005).

Tests used:
PDE4 = test: Inhibition of PDE4 activity (method of Bauer and Schwabe, microtitre plates); assay type: biochemical; details: measured as −logIC50 (mol/l)
Method: The activity test was carried out according to the method of Bauer and Schwabe, which was adapted to microtitre plates (Naunyn-Schmiederberg's Arch. Pharmacol. 311, 193-198, 1980). In this test, the PDE reaction is carried out in the first step. In a second step, the resultant 5′-nucleotide is cleaved to the uncharged nucleoside by a snake venom 5′-nucleotidase from Crotalus Atrox. In the third step, the necleoside is separated from the remaining charged substrate on ion exchange columns. The columns are eluted directly into minivials using 2 ml of 30 mM ammonium formate (pH 6.0), to which a further 2 ml of scintillation fluid is added for counting.
The inhibitory values determined for the compounds according to the invention follow from the following table A which the numbers of the compounds correspond to the numbers of the examples.

SMILES | Inhibition of PDE4 activity, −logIC50 (PDE4) [mol/l] | melting point [°C]
COc1ccc(C2=NN(C3CCSCC3)C(=O)[C@H]3CC=CC[C@@H]23)c2c1OC(C)(C)C2 (relative stereo) [compound 1, (cis)-4-(2,3-Dihydro-2,2-dimethyl-7-methoxybenzofuran-4-yl)-2-(tetrahydrothiopyran-4-yl)-4a,5,8,8a-tetrahydro-2H-phthalazin-1-one] | 9.34 | 163 to 164
COc1ccc(C2=NN(C3CCSCC3)C(=O)[C@H]3CC=CC[C@@H]23)cc1Cl (relative stereo) [compound 4, (cis)-4-(3-Chloro-4-methoxyphenyl)-2-(tetrahydrothiopyran-4-yl)-4a,5,8,8a-tetrahydro-2H-phthalazin-1-one] |  | 170 to 171
COc1ccc(C2=NN(C3CCS(=O)(=O)CC3)C(=O)C3CC=CCC23)cc1OC (stereo not drawn) [compound 2, (cis)-4-(3,4-Dimethoxyphenyl)-2-(1,1-dioxohexahydro-1l^6-thiopyran-4-yl)-4a,5,8,8a-tetrahydro-2H-phthalazin-1-one] | 8.45 | 196 to 198
COc1ccc(C2=NN(C3CC[S+]([O-])CC3)C(=O)C3CC=CCC23)cc1OC (stereo not drawn) [compound 3, (cis)-4-(3,4-Dimethoxyphenyl)-2-(1-oxo-hexahydro-1l^4-thiopyran-4-yl)-4a,5,8,8a-tetrahydro-2H-phthalazin-1-one] | 8.51 | 
COc1ccc(C2=NN(C3CC[S+]([O-])CC3)C(=O)C3CC=CCC23)cc1Cl (stereo not drawn) [compound 5, (cis)-4-(3-Chloro4-methoxyphenyl)-2-(1-oxo-hexahydro-1l^4-thiopyran-4-yl)-4a,5,8,8a-tetrahydro-2H-phthalazin-1-one] | 8.20 | 197 to 199
CCOc1ccc(C2=NN(C3CCS(=O)(=O)CC3)C(=O)C3CC=CCC23)cc1OCC (stereo not drawn) [compound 6, (cis)-4-(3,4-Diethoxyphenyl)-2-(1,1-dioxohexahydro-1l^6-thiopyran-4-yl)-4a,5,8,8a-tetrahydro-2H-phthalazin-1-one] | 8.02 | 
COc1ccc(C2=NN(C3CCS(=O)(=O)CC3)C(=O)C3CC=CCC23)c2c1OC(C)(C)C2 (stereo not drawn) [compound 7, (cis)-4-(2,3-Dihydro-2,2-dimethyl-7-methoxybenzofuran-4-yl)-2-(1,1-dioxohexahydro-1l^6-thiopyran4-yl)-4a,5,8,8a-tetrahydro-2H-phthalazin-1-one] | 9.00 | 261 to 263
COc1ccc(C2=NN(C3CCS(=O)(=O)CC3)C(=O)C3CC=CCC23)cc1OC [compound 9, (4aS,8aR)-(cis)-4-(3,4-Dimethoxyphenyl)-2-(1,1-dioxohexahydro-1l^6-thiopyran-4-yl)-4a,5,8,8a-tetrahydro-2H-phthalazin-1-one] | 9.20 | 203 to 204
COc1ccc(C2=NN(C3CCS(=O)(=O)CC3)C(=O)C3CC=CCC23)cc1OC1CCCC1 (stereo not drawn) [compound 10, (cis)-4-(3-Cyclopentyloxy-4-methoxyphenyl)-2-(1,1,-dioxohexahydro-1l^6-thiopyran-4-yl)-4a,5,8,8a-tetrahydro-2H-phthalazin-1-one] | 9.43 | 
